Test results as given in patent US8703768B2, “Nitrogen containing heteroaryl compounds” (Hoffmann-La Roche Inc., priority 2010, dated 2014).

Molecular target: human PDE10A (Homo sapiens (Human), UniProt Q9Y233)
Experiment: human PDE10A full length Scintillation Proximity Assay (SPA)
Assay type: biochemical
Conditions: 50 nM cGMP and 50 nM [3H]-cGMP, 20 minutes at room temperature; read-out: PDE10A inhibition IC50
Method in brief: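 Full-length enzyme incubated with compounds; reaction started with cGMP plus [^3H]-cGMP substrate and run 20 min at room temperature. Stopped with yttrium silicate SPA beads in 18 mM zinc sulphate, 1 h shaking, then scintillation counting; background from enzyme-free wells.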

Sequence of human PDE10A (Q9Y233 other isoform, or with tags, fused parts or gaps): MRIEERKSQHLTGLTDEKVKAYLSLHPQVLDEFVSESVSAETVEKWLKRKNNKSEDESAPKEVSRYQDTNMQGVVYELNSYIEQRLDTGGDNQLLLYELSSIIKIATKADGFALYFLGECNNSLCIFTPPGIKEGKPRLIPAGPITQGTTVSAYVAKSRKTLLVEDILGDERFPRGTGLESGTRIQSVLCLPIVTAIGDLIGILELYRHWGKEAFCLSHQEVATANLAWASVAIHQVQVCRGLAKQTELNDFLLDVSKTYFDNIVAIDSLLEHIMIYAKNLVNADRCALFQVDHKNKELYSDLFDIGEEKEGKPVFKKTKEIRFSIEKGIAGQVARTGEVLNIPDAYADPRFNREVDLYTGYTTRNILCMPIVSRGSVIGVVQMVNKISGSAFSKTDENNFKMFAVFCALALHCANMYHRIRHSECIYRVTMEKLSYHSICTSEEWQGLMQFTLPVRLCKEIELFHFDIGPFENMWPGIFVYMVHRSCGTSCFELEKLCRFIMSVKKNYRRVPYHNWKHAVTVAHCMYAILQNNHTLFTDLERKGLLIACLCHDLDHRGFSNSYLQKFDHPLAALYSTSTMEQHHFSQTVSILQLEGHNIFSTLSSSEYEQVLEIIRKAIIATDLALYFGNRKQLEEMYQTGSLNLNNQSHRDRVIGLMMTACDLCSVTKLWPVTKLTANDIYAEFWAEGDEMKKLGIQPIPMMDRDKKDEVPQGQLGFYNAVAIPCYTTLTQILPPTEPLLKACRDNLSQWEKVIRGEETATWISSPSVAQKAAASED

Structure (SMILES)	IC50
CN(C)C(=O)c1cccc(F)c1NC(=O)c1nc(C2CC2)cnc1Nc1cncnc1 [Example 303, 6-Cyclopropyl-3-(pyrimidin-5-ylamino)-pyrazine-2-carboxylic acid (2-dimethylcarbamoyl-6-fluoro-phenyl)-amide]	368 nM
Cn1ncc(NC(=O)c2nc(C3CC3)cnc2Nc2cncnc2)c1C(=O)NCCC(C)(C)O [Example 140, 6-Cyclopropyl-3-(pyrimidin-5-ylamino)-pyrazine-2-carboxylic acid [5-(3-hydroxy-3-methyl-butylcarbamoyl)-1-methyl-1H-pyrazol-4-yl]-amide]	3 nM
CNC(=O)c1cc(C(C)C)ccc1NC(=O)c1nc(C2CC2)cnc1Nc1cncnc1 [Example 208, 6-Cyclopropyl-3-(pyrimidin-5-ylamino)-pyrazine-2-carboxylic acid (4-isopropyl-2-methylcarbamoyl-phenyl)-amide]	1.3 nM
O=C(NCC(O)CO)c1ccncc1NC(=O)c1nc(C2CC2)ccc1Nc1cncnc1 (centres unmarked) [Example 69, 6-Cyclopropyl-3-(pyrimidin-5-ylamino)-pyridine-2-carboxylic acid [4-(2,3-dihydroxy-propylcarbamoyl)-pyridin-3-yl]-amide]	4.1 nM
Cn1cc(NC(=O)c2nc(C3CC3)ccc2Nc2cncnc2)c(C(=O)N2CCCC2)n1 [Example 21, 6-Cyclopropyl-3-(pyrimidin-5-ylamino)-pyridine-2-carboxylic acid [1-methyl-3-(pyrrolidine-1-carbonyl)-1H-pyrazol-4-yl]-amide]	7 nM
CNC(=O)c1cc(OCCOC)ccc1NC(=O)c1nc(C2CC2)cnc1Nc1cncnc1 [Example 214, 6-Cyclopropyl-3-(pyrimidin-5-ylamino)-pyrazine-2-carboxylic acid [4-(2-methoxy-ethoxy)-2-methylcarbamoyl-phenyl]-amide]	1 nM
CCNC(=O)c1c(NC(=O)c2nc(C3CC3)cnc2Nc2cncnc2)cnn1C [Example 197, 6-Cyclopropyl-3-(pyrimidin-5-ylamino)-pyrazine-2-carboxylic acid (5-ethylcarbamoyl-1-methyl-1H-pyrazol-4-yl)-amide]	3.9 nM
O=C(Nc1cnccc1C(=O)N1CC(F)(F)C1)c1nc(C2CC2)ccc1Nc1cncnc1 [Example 79, 6-Cyclopropyl-3-(pyrimidin-5-ylamino)-pyridine-2-carboxylic acid [4-(3,3-difluoro-azetidine-1-carbonyl)-pyridin-3-yl]-amide]	29.6 nM
CNC(=O)c1c(NC(=O)c2nc(C3CC3)ccc2Nc2cncnc2)cnn1CCC(F)(F)F [Example 10, 6-Cyclopropyl-3-(pyrimidin-5-ylamino)-pyridine-2-carboxylic acid [5-methylcarbamoyl-1-(3,3,3-trifluoro-propyl)-1H-pyrazol-4-yl]-amide]	202 nM
O=C(Nc1cncnc1C(=O)N1CCCC1)c1nc(C2CC2)cnc1Nc1cncnc1 [Example 219, 6-Cyclopropyl-3-(pyrimidin-5-ylamino)-pyrazine-2-carboxylic acid [4-(pyrrolidine-1-carbonyl)-pyrimidin-5-yl]-amide]	52.3 nM
CN(CC(C)(C)O)C(=O)c1ncncc1NC(=O)c1nc(C2CC2)cnc1Nc1cncnc1 [Example 122, 5-{[6-Cyclopropyl-3-(pyrimidin-5-ylamino)-pyrazine-2-carbonyl]-amino}-pyrimidine-4-carboxylic acid (2-hydroxy-2-methyl-propyl)-methyl-amide]	45.3 nM
Cn1ncc(NC(=O)c2nc(C3CC3)cnc2Nc2cncnc2)c1C(=O)N1CC(F)C1 [Example 174, 6-Cyclopropyl-3-(pyrimidin-5-ylamino)-pyrazine-2-carboxylic acid [5-(3-fluoro-azetidine-1-carbonyl)-1-methyl-1H-pyrazol-4-yl]-amide]	14.8 nM
CC(C)(O)CNC(=O)c1cc(OCCO)ccc1NC(=O)c1nc(C2CC2)cnc1Nc1cncnc1 [Example 215, 6-Cyclopropyl-3-(pyrimidin-5-ylamino)-pyrazine-2-carboxylic acid [4-(2-hydroxy-ethoxy)-2-(2-hydroxy-2-methyl-propylcarbamoyl)-phenyl]-amide]	0.5 nM
Cn1cc(NC(=O)c2nc(C3CC3)ccc2Nc2cncnc2)c(C(=O)N2CCCCC2)n1 [Example 16, 6-Cyclopropyl-3-(pyrimidin-5-ylamino)-pyridine-2-carboxylic acid [1-methyl-3-(piperidine-1-carbonyl)-1H-pyrazol-4-yl]-amide]	7.6 nM
CNC(=O)c1c(NC(=O)c2nc(C3CC3)ccc2Nc2cncnc2)cnn1C [Example 148, 6-Cyclopropyl-3-(pyrimidin-5-ylamino)-pyridine-2-carboxylic acid (1-methyl-5-methylcarbamoyl-1H-pyrazol-4-yl)-amide]	14.4 nM
CCN(CCO)C(=O)c1c(NC(=O)c2nc(C3CC3)cnc2Nc2cncnc2)cnn1C [Example 230, 6-Cyclopropyl-3-(pyrimidin-5-ylamino)-pyrazine-2-carboxylic acid {5-[ethyl-(2-hydroxy-ethyl)-carbamoyl]-1-methyl-1H-pyrazol-4-yl}-amide]	118 nM

Structure (SMILES)	IC50
CC(C)(O)CNC(=O)c1ncncc1NC(=O)c1nc(C2CC2)cnc1Nc1cncnc1 [Example 97, 5-{[6-Cyclopropyl-3-(pyrimidin-5-ylamino)-pyrazine-2-carbonyl]-amino}-pyrimidine-4-carboxylic acid (2-hydroxy-2-methyl-propyl)-amide]	1.1 nM
CN1CCC(NC(=O)c2c(NC(=O)c3nc(C4CC4)cnc3Nc3cncnc3)cnn2C)CC1 [Example 242, 6-Cyclopropyl-3-(pyrimidin-5-ylamino)-pyrazine-2-carboxylic acid [1-methyl-5-(1-methyl-piperidin-4-ylcarbamoyl)-1H-pyrazol-4-yl]-amide]	69.3 nM
CC(C)(O)CNC(=O)c1cnccc1NC(=O)c1nc(C2CC2)cnc1Nc1cncnc1 [Example 120, 6-Cyclopropyl-3-(pyrimidin-5-ylamino)-pyrazine-2-carboxylic acid [3-(2-hydroxy-2-methyl-propylcarbamoyl)-pyridin-4-yl]-amide]	0.4 nM
CNC(=O)c1cc(Cl)ncc1NC(=O)c1nc(C2CC2)cnc1Nc1cncnc1 [Example 259, 6-Cyclopropyl-3-(pyrimidin-5-ylamino)-pyrazine-2-carboxylic acid (6-chloro-4-methylcarbamoyl-pyridin-3-yl)-amide]	1.8 nM
CNC(=O)c1c(NC(=O)c2nc(C3CCOC3)cnc2Nc2cncnc2)cnn1C (centres unmarked) [Example 160, 3-(Pyrimidin-5-ylamino)-6-(tetrahydro-furan-3-yl)-pyrazine-2-carboxylic acid (1-methyl-5-methylcarbamoyl-1H-pyrazol-4-yl)-amide]	2.9 nM
CNC(=O)c1c(NC(=O)c2nc(C3CC3)cnc2Nc2cncnc2)cnn1C [Example 116, 6-Cyclopropyl-3-(pyrimidin-5-ylamino)-pyrazine-2-carboxylic acid (1-methyl-5-methylcarbamoyl-1H-pyrazol-4-yl)-amide]	4.5 nM
CC(C)(O)CNC(=O)c1cccc(F)c1NC(=O)c1nc(C2CC2)cnc1Nc1cncnc1 [Example 293, 6-Cyclopropyl-3-(pyrimidin-5-ylamino)-pyrazine-2-carboxylic acid [2-fluoro-6-(2-hydroxy-2-methyl-propylcarbamoyl)-phenyl]-amide]	6 nM
CC1CCCN1C(=O)c1ccncc1NC(=O)c1nc(C2CC2)ccc1Nc1cncnc1 (centres unmarked) [Example 55, 6-Cyclopropyl-3-(pyrimidin-5-ylamino)-pyridine-2-carboxylic acid [4-(2-methyl-pyrrolidine-1-carbonyl)-pyridin-3-yl]-amide]	115 nM
CNC(=O)c1nn(C)cc1NC(=O)c1nc(C2CCCCC2)ncc1Nc1cncnc1 [Example 84, 2-Cyclohexyl-5-(pyrimidin-5-ylamino)-pyrimidine-4-carboxylic acid (1-methyl-3-methylcarbamoyl-1H-pyrazol-4-yl)-amide]	1.9 nM
CNC(=O)c1c(NC(=O)c2nc(C3CC3)cnc2Nc2cncnc2)cnn1CC(C)C [Example 137, 6-Cyclopropyl-3-(pyrimidin-5-ylamino)-pyrazine-2-carboxylic acid (1-isobutyl-5-methylcarbamoyl-1H-pyrazol-4-yl)-amide]	58.7 nM
CNC(=O)c1nn(-c2ccccc2)cc1NC(=O)c1nc(C2CC2)ccc1Nc1cncnc1 [Example 25, 6-Cyclopropyl-3-(pyrimidin-5-ylamino)-pyridine-2-carboxylic acid (3-methylcarbamoyl-1-phenyl-1H-pyrazol-4-yl)-amide]	1860 nM
CC(C)(O)CNC(=O)c1c(F)cc(F)cc1NC(=O)c1nc(C2CC2)cnc1Nc1cncnc1 [Example 324, 6-Cyclopropyl-3-(pyrimidin-5-ylamino)-pyrazine-2-carboxylic acid [3,5-difluoro-2-(2-hydroxy-2-methyl-propylcarbamoyl)-phenyl]-amide]	1.1 nM
Cn1cc(NC(=O)c2nc(C3CC3)ccc2Nc2cncnc2)c(C(=O)N2CC3(COC3)C2)n1 [Example 51, 6-Cyclopropyl-3-(pyrimidin-5-ylamino)-pyridine-2-carboxylic acid [1-methyl-3-(2-oxa-6-aza-spiro[3.3]heptane-6-carbonyl)-1H-pyrazol-4-yl]-amide]	58 nM
CCNC(=O)c1c(NC(=O)c2nc(C3CC3)cnc2Nc2cncnc2)cnn1CC [Example 201, 6-Cyclopropyl-3-(pyrimidin-5-ylamino)-pyrazine-2-carboxylic acid (1-ethyl-5-ethylcarbamoyl-1H-pyrazol-4-yl)-amide]	11.5 nM
CC1(C)CCN(C(=O)c2ccncc2NC(=O)c2nc(C3CC3)ccc2Nc2cncnc2)C1 [Example 63, 6-Cyclopropyl-3-(pyrimidin-5-ylamino)-pyridine-2-carboxylic acid [4-(3,3-dimethyl-pyrrolidine-1-carbonyl)-pyridin-3-yl]-amide]	87 nM
CNC(=O)c1c(F)cc(F)cc1NC(=O)c1nc(C2CC2)cnc1Nc1cncnc1 [Example 299, 6-Cyclopropyl-3-(pyrimidin-5-ylamino)-pyrazine-2-carboxylic acid (3,5-difluoro-2-methylcarbamoyl-phenyl)-amide]	0.3 nM
